Source: patent publication US20160194358A1, “LINEAR PEPTIDE ANTIBIOTCS” (priority 2013, published 2016)
In brackets after ≈: the same amount, converted by molar mass. Like-named read-outs stand apart in the source and are kept apart here. *1 amine or outer side, *2 acyl side, *3 side chain or, on linkers, in order; H or OH if unused. Where a SMILES comes first, the peptide text is derived from it. [ ]: non-standard residue; d: D form. The star is where a group is joined. ξ: configuration not given here. boroAla((+)-pinanediol) = C[C@H](N*)B1O[C@@H]2C[C@@H]3C[C@@H](C3(C)C)[C@]2(C)O1; Biphenylcarbonyl(4'-Bu) = CCCCc1ccc(-c2ccc(C(=O)*)cc2)cc1; Benzoyl(4-(4-Cl-Ph)) = O=C(c1ccc(-c2ccc(Cl)cc2)cc1)*; ξ3Amino2oxobutanoyl = CC(N[*:1])C(=O)C(=O)[*:2]; NH(2-(2-pyridyl)ethyl) = c1ccc(CCN*)nc1; X1 = C[C@H](N[*:1])C(=O)C(=O)[*:2]; Thr(3ξ) = CC(O)[C@H](N)C(=O)O; Decanoyl = CCCCCCCCCC(=O)*; Dab = NCC[C@H](N)C(=O)O; Dap = NC[C@H](N)C(=O)O; NHtBu = CC(C)(C)N*; CF3 = FC(F)(F)*; NHiPr = CC(C)N*; Sar = CNCC(=O)O

What was measured:
E. coli SPase = molecular target: T1, E. coli SPase (Escherichia coli, UniProt P00803); test: Biochemical SPase activity assay, fluorogenic peptide substrate, E. coli enzyme; conditions: 20 μM substrate, 10 minutes preincubation, read-out: IC 50 (nM) E. coli
T1 construct: Full length His-tagged E. coli SPase proteins; His; made in house; host or cells: E. coli BL21(DE3)
Protocol: Full length His-tagged E. coli SPase proteins were expressed in E. coli BL21(DE3) containing the plasmid pET23-lepB. Briefly, saturated overnight cultures grown in 20 ml of Luria-Bertani medium supplemented with ampicillin were subcultures into 1.5 L of Luria-Bertani, and shaken at 37° C. until an optical density at 600 nm of 0.4-0.5 was achieved.
(§1) Signal peptidase enzyme activity of the above proteins was measured using two fluorogenic peptide substrates (decanoyl-LSSPAYNO2A ? ADKabzPD and decanoyl-LTPTAYNO2A ? ASKKabzDD), where abz is the fluorescence donor 2-aminobenzamide, YNO2 is the fluorescence acceptor 3-nitrotyrosine, and the cleavage site is indicated with an arrow. Enzyme mix solution was prepared by diluting 2.5 nM of Escherichia coli or Staphylococcus aureus SPase protein into reaction buffers consisting of 20 mM PO4 pH 7.4, 100 mM NaCl, and 1% Elugent™ or octyl phenoxypolyethoxylethanol detergent at a concentration of 0.25% or 0.0625%. Reactions were initiated by the addition of substrate to a final concentration of 20 μM. Reaction progress was monitored by measuring the increase in fluorescence signal (excitation at 314 nm, emission at 416 nm) using a SpectraMax M2 fluorescence microplate reader. To determine IC50 values of test compounds, compound stock solutions were prepared in DMSO at a concentration of 1 mM. Three-folder serial dilutions of test compounds, starting at 10 μM, were prepared in enzyme mix solution and incubated at room temperature for 10 minutes. Following this incubation, fluorogenic substrate was added to a final concentration of 20 μM and the increase in fluorescence, corresponding to substrate cleavage, was monitored continuously at room temperature for 1 hour. Initial reaction rates were calculated based on the rate of increase in fluorescence during the reaction. Reaction rates were plotted as a function of compound concentration, and IC50 values are determined nonlinear regression analysis (SoftMaxPro 5.4, Molecular Devices™) of the sigmoidal dose-response curve.

[1] = test system: methicillin resistant Staphylococcus aureus (MRSA) strain USA300 (NRS384); conditions: MRSA USA300 (NRS384), 35° C., 22 hours
Summary of the method: (§2)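 CLSI broth microdilution in cation-adjusted Mueller Hinton Broth with 0.002% Tween-80, two-fold dilutions starting at 64 μg/ml.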

[2] = test system: Escherichia coli strain MC4100 IMP-4213, which harbors an LptD mutation; conditions: E. coli MC4100 IMP-4213, 35° C., 22 hours
Summary of the method: as §2

S. aureus SPase = S. aureus SPase (Staphylococcus aureus, UniProt P0A070); test: biochemical; conditions: IC 50 (nM) S. aureus, 20 μM substrate, 10 minutes preincubation
Protocol: Full length His-tagged S. aureus SPase protein was expressed similarly from E. coli BL21(DE3) containing the plasmid pCDF1-SaSpsB and purified similarly to the E. coli protein with the following exceptions. SPase protein was solubilized using 300 mM NaCl, 20 mM Tris pH 8.06, 5 mM Imidazole, 10% glycerol, 1% Triton X-100, prior to purification in Ni-NTA Superflow resin and resin bound protein was washed in a similar buffer containing 1% Elugent in place of Triton X-100 prior to protein eluted in wash buffer supplemented with 300 mM imidazole. […] All protein concentrations were determined by BCA assay.
as §1

S. aureus SPase, sequence (P0A070 whole entry): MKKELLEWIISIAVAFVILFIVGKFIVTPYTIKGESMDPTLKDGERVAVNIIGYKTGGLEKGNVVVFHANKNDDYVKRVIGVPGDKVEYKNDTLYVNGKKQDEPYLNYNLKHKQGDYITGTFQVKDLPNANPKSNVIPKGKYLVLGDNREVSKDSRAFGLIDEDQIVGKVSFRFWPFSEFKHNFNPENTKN
T1 sequence (P00803 whole entry): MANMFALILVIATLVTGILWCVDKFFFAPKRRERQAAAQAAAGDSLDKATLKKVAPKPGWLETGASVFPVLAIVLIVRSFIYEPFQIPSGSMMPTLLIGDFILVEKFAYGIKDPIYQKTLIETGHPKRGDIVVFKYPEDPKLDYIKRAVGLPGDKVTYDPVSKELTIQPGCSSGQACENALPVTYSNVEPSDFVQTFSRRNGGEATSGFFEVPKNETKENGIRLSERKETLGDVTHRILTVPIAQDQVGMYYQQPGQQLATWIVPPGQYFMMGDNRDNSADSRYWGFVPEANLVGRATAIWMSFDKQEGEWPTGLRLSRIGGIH

CCCCc1ccc(-c2ccc(C(=O)N[C@@H](CCN)C(=O)N[C@H](C(=O)N[C@@H](C)C(=O)N[C@@H](CCCCN)C(=O)N[C@@H](C)C(=O)C3CO3)[C@@H](C)O)cc2)cc1 (single isomer, unassigned) [Compound 201 P2]
IC50 (E. coli SPase): 150 nM | MIC (μg/mL) S. aureus ([1]; listed as 201 P2): 2 µg/mL (≈ 2.66 µM) | MIC (μg/mL) E. coli ([2]; listed as 201 P2): 5.7 µg/mL (≈ 7.58 µM) | IC50 (S. aureus SPase): 210 nM

CC(C)NC(=O)C(=O)[C@H](C)NC(=O)[C@H](CCCCN)NC(=O)[C@H](C)NC(=O)[C@@H](NC(=O)[C@H](CN)NC(=O)c1ccc(-c2ccc(Cl)cc2)cc1)[C@@H](C)O [Compound 103] ({Benzoyl(4-(4-Cl-Ph))}-[Dap]TAK[X1]-NHiPr)
IC50 (E. coli SPase): 1100 nM | MIC (μg/mL) S. aureus [1]: >64 µg/mL | MIC (μg/mL) E. coli [2]: >64 µg/mL | IC50 (S. aureus SPase): 1400 nM

CCCCc1ccc(-c2ccc(C(=O)N[C@@H](CCN)C(=O)N[C@H](C(=O)N[C@@H](C)C(=O)N[C@@H](CCCCN)C(=O)N[C@@H](C)C(=O)C3(C)CO3)[C@@H](C)O)cc2)cc1 (single isomer, unassigned) [Compound 207 P1]
IC50 (E. coli SPase): 1800 nM | MIC (μg/mL) S. aureus ([1]; listed as 207 P1): 5.7 µg/mL (≈ 7.44 µM) | MIC (μg/mL) E. coli ([2]; listed as 207 P1): 8 µg/mL (≈ 10.4 µM) | IC50 (S. aureus SPase): 1400 nM

CCCCc1ccc(-c2ccc(C(=O)N[C@@H](CCN)C(=O)N[C@H](C(=O)N[C@@H](C)C(=O)N[C@@H](CCCCN)C(=O)N[C@@H](C)C(=O)C3CO3)[C@@H](C)O)cc2)cc1 (single isomer, unassigned) [Compound 201 P1]
IC50 (E. coli SPase): 7 nM | MIC (μg/mL) S. aureus ([1]; listed as 201 P1): 0.09 µg/mL (≈ 0.12 µM) | MIC (μg/mL) E. coli ([2]; listed as 201 P1): 1 µg/mL (≈ 1.33 µM) | IC50 (S. aureus SPase): 10 nM

CCCCCCCCCC(=O)N[C@@H](CCN)C(=O)N[C@H](C(=O)N[C@@H](C)C(=O)N[C@@H](CCCCN)C(=O)N[C@@H](C)B1O[C@@H]2C[C@@H]3C[C@@H](C3(C)C)[C@]2(C)O1)[C@@H](C)O [Compound 117] (Decanoyl-[Dab]TAK-{boroAla((+)-pinanediol)})
IC50 (E. coli SPase): 20 nM | MIC (μg/mL) S. aureus [1]: 2 µg/mL (≈ 2.57 µM) | MIC (μg/mL) E. coli [2]: 8 µg/mL (≈ 10.3 µM) | IC50 (S. aureus SPase): 150 nM

CCCCc1ccc(-c2ccc(C(=O)N[C@@H](CCN)C(=O)N(C)CC(=O)N[C@@H](C)C(=O)N[C@@H](CCCCN)C(=O)N[C@@H](C)B3O[C@@H]4C[C@@H]5C[C@@H](C5(C)C)[C@]4(C)O3)cc2)cc1 [Compound 124] ({Biphenylcarbonyl(4'-Bu)}-[Dab][Sar]AK-{boroAla((+)-pinanediol)})
IC50 (E. coli SPase): 110 nM | MIC (μg/mL) S. aureus [1]: 0.8 µg/mL (≈ 0.964 µM) | MIC (μg/mL) E. coli [2]: 0.6 µg/mL (≈ 0.723 µM) | IC50 (S. aureus SPase): 2000 nM

CCCCCCCCCC(=O)N[C@@H](CCCCN)C(=O)N[C@H](C(=O)N[C@@H](C)C(=O)N[C@@H](CC(N)=O)C(=O)NC(C)C(=O)C(=O)NC)C(C)O (stereo partly shown) [Compound 107] (Decanoyl-K[Thr(3ξ)]AN[ξ3Amino2oxobutanoyl]-NHMe)
IC50 (E. coli SPase): 3200 nM | MIC (μg/mL) S. aureus [1]: >64 µg/mL | MIC (μg/mL) E. coli [2]: >64 µg/mL | IC50 (S. aureus SPase): 360 nM

C[C@H](NC(=O)[C@@H](NC(=O)[C@H](CN)NC(=O)c1ccc(-c2ccc(Cl)cc2)cc1)[C@@H](C)O)C(=O)N[C@@H](CCCCN)C(=O)N[C@@H](C)C(=O)C(=O)NC(C)(C)C [Compound 108] ({Benzoyl(4-(4-Cl-Ph))}-[Dap]TAK[X1]-NHtBu)
IC50 (E. coli SPase): 930 nM | MIC (μg/mL) S. aureus [1]: >64 µg/mL | MIC (μg/mL) E. coli [2]: >64 µg/mL | IC50 (S. aureus SPase): 3700 nM

CCCCc1ccc(-c2ccc(C(=O)N[C@@H](CCN)C(=O)N[C@H](C(=O)N[C@@H](C)C(=O)N[C@@H](CCCCN)C(=O)N[C@@H](C)C(=O)C(F)(F)F)[C@@H](C)O)cc2)cc1 [Compound 210] ({Biphenylcarbonyl(4'-Bu)}-[Dab]TAKA-CF3)
IC50 (E. coli SPase): 260 nM | MIC (μg/mL) S. aureus [1]: 11 µg/mL (≈ 14.1 µM) | MIC (μg/mL) E. coli [2]: 4 µg/mL (≈ 5.14 µM) | IC50 (S. aureus SPase): 2300 nM

C[C@H](NC(=O)[C@@H](NC(=O)[C@H](CN)NC(=O)c1ccc(-c2ccc(Cl)cc2)cc1)[C@@H](C)O)C(=O)N[C@@H](CCCCN)C(=O)N[C@@H](C)C(=O)C(=O)NCCc1ccccn1 [Compound 104] ({Benzoyl(4-(4-Cl-Ph))}-[Dap]TAK[X1]-{NH(2-(2-pyridyl)ethyl)})
IC50 (E. coli SPase): 950 nM | MIC (μg/mL) S. aureus [1]: 64 µg/mL (≈ 77.8 µM) | MIC (μg/mL) E. coli [2]: >64 µg/mL | IC50 (S. aureus SPase): 840 nM
